Assay results: patent US11026942B2, “Agent for preventing and/or treating Alzheimer's disease” (KYOTO UNIVERSITY, priority 2015, dated 2021)
Like-named read-outs stand apart in the source and are kept apart here.

Columns and labels:
Type in all cases: cell-based, human
[1] = tested on: Aβ38; assay: Aβ38 in FAD1 iPS cell-derived nerve cells (secondary screening); parameters: scale not given here
Experimental: (§1) To further study reproducibility of the candidate drugs obtained by the primary screening, secondary screening was conducted. In addition to Aβ40, Aβ42, Aβ42/40 ratio, Aβ38, Aβ43, sAPPα, sAPPβ were also studied and each numerical value was obtained.

[2] = tested on: Aβ42; assay: Aβ42 in FAD1 iPS cell-derived nerve cells (primary/secondary screening, dose dependency)
Outline: (§2)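 Cerebral cortex neurons were induced from FAD1 patient iPS cells by doxycycline-inducible NGN2, delivered by PiggyBac. Aβ40 and Aβ42 in the culture medium gave the Aβ42/40 ratio, with dose dependency examined in primary and secondary screens. The secondary screen also covered Aβ38, Aβ43, sAPPα and sAPPβ.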

[3] = tested on: sAPPβ; assay: sAPPβ in FAD1 iPS cell-derived nerve cells (secondary screening); parameters: sAPPβ: scale not given here
Experimental: as §1

[4] = tested on: Aβ43; assay: Aβ43 in FAD1 iPS cell-derived nerve cells (secondary screening); parameters: scale not given here
Experimental: as §1

[5] = tested on: Aβ40; settings: secondary screening, FAD1 iPS cell-derived nerve cells, numerical value (Aβ change rate)
Description: (§3) To perform induction from iPS cells to the cerebral cortex nerve early and with high reproducibility, iPS cells introduced with human Neurogenin 2 gene (NGN2) linked to doxycycline-inducible promoter by using PiggyBac were used (FIG. 1a, FIG. 1b, FIG. 4a and FIG. 4b). IPS cells prepared from 4 patients with familial Alzheimer's disease (FAD), 2 patients with sporadic Alzheimer's disease (SAD) and 4 healthy individuals (HC) were used. The iPS cells were established by the method described in Okita K et al., Nature.
Structural formulas (those in the form of salt or halide are also described as free form) and the general names of the candidate compounds are shown in Table 1.
as §1

[6] = tested on: Aβ42/40 ratio; assay: Aβ42/40 ratio in FAD1 iPS cell-derived nerve cells (primary/secondary screening, dose dependency); settings: secondary screening
Outline: as §2

[7] = tested on: sAPPα; assay: sAPPα in FAD1 iPS cell-derived nerve cells (secondary screening); parameters: scale not given here
Experimental: as §1

[8] = tested on: Aβ; assay: Aβ pathology (Aβ amount in medium) in cerebral cortex nerve cells induced from FAD1 patient iPS cells; settings: for Aβ lesion (Aβ amount) / Aβ pathology: FAD1 nerve cells; for Aβ lesion (Aβ amount): compounds added 8 days after differentiation induction, Aβ amount two days later; for Aβ pathology: low dose
Description: as §3, with “Nature. […]” for “Nature.”
as §1

[9] = secondary screening, FAD1 iPS cell-derived nerve cells, numerical value (Aβ change rate)
[10] = secondary screening, FAD1 iPS cell-derived nerve cells

| Molecule | Aβ38 [1] | Aβ42 [2, 9] | sAPPβ [3, 10] | Aβ43 [4] | Ratio Aβ42/40 [6] | sAPPα [7, 10] | also measured |
| --- | --- | --- | --- | --- | --- | --- | --- |
| BITOSCANATE [compound 123] | 1.01 | 0.89 | 0.73 | 1 | 0.96 | 0.76 | Aβ40 [5]: 0.93 |
| CN[C@H](CC(C)C)C(=O)N[C@H]1C(=O)N[C@@H](CC(N)=O)C(=O)N[C@H]2C(=O)N[C@H]3C(=O)N[C@H](C(=O)N[C@H](C(=O)O)c4cc(O)cc(O)c4-c4cc3ccc4O)[C@H](O)c3ccc(c(Cl)c3)Oc3cc2cc(c3O[C@@H]2O[C@H](CO)[C@@H](O)[C@H](O)[C@H]2O[C@H]2C[C@](C)(N)[C@H](O)[C@H](C)O2)Oc2ccc(cc2Cl)[C@H]1O [compound 105, VANCOMYCIN] | 1.29 | 1.06 | 1.36 | 1.2 | 1.05 | 1.33 | Aβ40 [5]: 1.01 |
| CC(N)Cc1ccccc1 (stereo not shown) [amphetamine] |  |  |  |  |  |  | Aβ suppressive effect (dopamine series) [8]: show effects |
| DESOXYCORTICOSTERONE [compound 98] | 1.09 | 0.9 | 0.87 | 0.89 | 0.9 | 0.88 | Aβ40 [5]: 1 |
| CC(C)[C@H](O)C(=O)N[C@@H](C)C(=O)N[C@@H]1C(=O)N(C)CCc2ccccc21 [semagacestat] |  |  |  |  |  |  | Aβ42 ([2]; FAD1 nerve cells, low dose): increased; Aβ lesion (Aβ amount) [8]: improved Aβ lesion |
| CEFAMANDOLE [compound 66] | 1.11 | 0.97 | 0.78 | 1.11 | 0.9 | 0.79 | Aβ40 [5]: 1.08 |
| Cc1ccc(NC(=O)c2ccc(CN3CCN(C)CC3)cc2)cc1Nc1nccc(-c2cccnc2)n1 [imatinib] |  |  |  |  |  |  | Aβ pathology [8]: not improved |
| CC(C(=O)O)c1ccc(-c2ccccc2)c(F)c1 (stereo not shown) [Flurbiprofen] |  |  |  |  |  |  | Aβ pathology [8]: not improved |
| CARBADOX [compound 29] | 0.87 | 0.74 | 0.78 | 0.76 | 0.88 | 0.86 | Aβ40 [5]: 0.84 |
| TELITHROMYCIN [compound 108] |  | 0.85 | 0.68 | 0.84 |  | 0.71 | Aβ40 [5]: 0.99 |
| CC(C)C[C@H]1C(=O)N2CCC[C@H]2[C@]2(O)O[C@](NC(=O)[C@@H]3C=C4c5cccc6[nH]c(Br)c(c56)C[C@H]4N(C)C3)(C(C)C)C(=O)N12 [compound 52, BROMOCRIPTINE] | 0.97 | 0.63 | 0.79 | 0.65 | 0.64 | 1.18 | action suggested from the sAPP metabolism ([3]; sAPPα, sAPPβ, sAPPβ/α ratio): BSI-like action; Aβ suppressive effect (dopamine series) [8]: show effects |
| CC(NC(=O)c1cc(C(=O)NC(Cc2ccccc2)C(O)CNC2CC2)cc(N(C)S(C)(=O)=O)c1)c1ccccc1 (racemic) [RACE inhibitor IV] |  |  |  |  |  |  | Aβ lesion (Aβ amount) [8]: improved Aβ lesion |
| CC(C)C[C@H](C(=O)O)c1cc(-c2ccc(C(F)(F)F)cc2)cc(-c2ccc(C(F)(F)F)cc2)c1 [JNJ-40418677] |  |  |  |  |  |  | Aβ lesion (Aβ amount) [8]: improved Aβ lesion |
| NCCc1ccc(O)c(O)c1 [compound 90, DOPAMINE] | 1.01 | 0.88 | 0.95 | 0.96 | 0.92 | 0.91 | Aβ suppressive effect (dopamine series) ([8]; neuron derived from iPS cell (FAD1)): show effects |
| CC1=C(CC(=O)O)c2cc(F)ccc2/C1=C\c1ccc([S+](C)[O-])cc1 (stereo not shown) [sulindac] |  |  |  |  |  |  | Aβ pathology [8]: not improved |
| RIFAXIMIN [compound 97] | 1.09 | 0.84 | 0.95 | 0.92 | 0.91 | 0.91 | Aβ40 [5]: 0.92 |
| CC(=O)Nc1cccc(O)c1 [compound 93, METACETAMOL] | 0.95 | 0.77 | 0.89 | 0.74 | 0.86 | 0.83 |  |

| Molecule | Aβ38 [1] | Aβ42 [2, 9] | sAPPβ [3, 10] | Aβ43 [4] | Ratio Aβ42/40 [6] | sAPPα [7, 10] | also measured |
| --- | --- | --- | --- | --- | --- | --- | --- |
| Cc1cc2cc3c(C)cc(=O)oc3c(C)c2o1 [compound 91, TRIOXSALEN] | 0.97 | 0.84 | 1.02 | 1.01 | 0.95 | 0.82 |  |
| CINCHONINE [compound 24] |  | 0.88 | 0.68 | 0.81 |  | 0.76 | Aβ40 [5]: 0.87 |
| COc1cc2c(cc1OC)[C@@]13CCN4CC5=CCO[C@H]6CC(=O)N2[C@H]1[C@H]6[C@H]5C[C@H]43 [compound 106, BRUCINE] | 1.13 | 0.98 | 0.85 | 0.87 | 1.04 | 0.84 |  |
| CCOC(=O)OC(C)OC(=O)[C@@H]1N2C(=O)[C@@H](NC(=O)[C@H](N)c3ccccc3)[C@H]2SC1(C)C (stereo partly shown) [compound 59, BACAMPICILLIN] | 1.32 | 1.09 | 1.23 | 1.44 | 1.15 | 1.11 |  |
| COc1cc(C)c(/C=C/C(C)=C/C=C/C(C)=C/C(=O)O)c(C)c1C [acitretin] |  |  |  |  |  |  | Aβ lesion (Aβ amount) [8]: improved Aβ lesion |
| CNCCc1ccccn1 [compound 21, BETAHISTINE] | 1.01 | 0.98 | 0.91 | 0.87 | 1.08 | 0.73 |  |
| O=C(NC(Cc1cc(=O)[nH]c2ccccc12)C(=O)O)c1ccc(Cl)cc1 (stereo not shown) [compound 71, REBAMIPIDE] | 0.97 | 0.79 | 0.66 | 0.78 | 0.85 | 0.8 |  |
| CCN(CC)C(=S)SSC(=S)N(CC)CC [compound 112] | 1.1 | 0.91 | 0.89 | 0.98 | 0.97 | 0.78 |  |
| CC(C)(C)NC[C@H](O)c1ccc(O)c(CO)c1 [compound 73, LEVALBUTEROL] | 0.99 | 0.84 | 0.66 | 0.91 | 0.92 | 0.74 |  |
| CN1C(=O)CCS(=O)(=O)C1c1ccc(Cl)cc1 (stereo not shown) [compound 128, CHLORMEZANONE] | 1.05 | 0.86 | 0.72 | 0.85 | 0.78 | 0.85 |  |
| CCCCOc1cc(C(=O)NCCN(CC)CC)c2ccccc2n1 [compound 76, DIBUCAINE] | 0.97 | 0.9 | 0.77 | 0.98 | 0.94 | 0.77 |  |
| CC[N+]1(C)CCCC(OC(=O)C(O)(c2ccccc2)c2ccccc2)C1 (stereo not shown) [compound 42, PIPENZOLATE] | 1.3 | 1.09 | 1.27 | 1.12 | 1.04 | 1.11 |  |
| CN1Cc2c(N)cccc2C(c2ccccc2)C1 (stereo not shown) [compound 28, NOMIFENSINE] | 0.95 | 0.8 | 0.67 | 0.85 | 0.75 | 0.82 |  |
| CC(C)(C)NCC(O)c1cc(Cl)c(N)c(Cl)c1 (stereo not shown) [compound 85, CLENBUTEROL] | 1.17 | 0.88 | 0.84 | 0.94 | 0.85 | 0.86 |  |
| CC1=NS(=O)(=O)c2cc(Cl)ccc2N1 [compound 125, DIAZOXIDE] | 1.08 | 0.92 | 0.84 | 0.9 | 0.97 | 0.84 |  |
| CC1(C)C(C=C(Cl)Cl)C1C(=O)OC(C#N)c1cccc(Oc2ccccc2)c1 (stereo not shown) [compound 38, CYPERMETHRIN] | 0.97 | 0.83 | 0.88 | 0.95 | 0.87 | 0.85 |  |
| CC(C)c1cccc(C(C)C)c1O [compound 87, PROPOFOL] | 0.99 | 0.88 |  | 0.88 | 0.91 |  | sAPPβ [3]: 1; sAPPα [7]: 0.94 |
